Assay results taken from US11254987B2, “PD-L1 promoter methylation in cancer” (Genentech, Inc., priority 2015, dated 2022).
One block for each molecule: values may come before it.

Key:
Type in all cases: cell-based, human
PD-L1 expression [1] = test: PD-L1 expression after 5-aza-dC treatment of the CGP NSCLC cell line panel (FIG. 6C, 6D)
Description: (§1) NSCLC cell lines were procured from American Type Cell Culture (ATCC) or academic sources and cultured in RPMI 1640 medium supplemented with 10% fetal bovine serum (FBS) and 2 mM L-glutamine. Cells were detached for splitting and/or experimental analysis following a PBS wash and incubation with Accutase detachment medium (Sigma). Cells were treated with 0.1 mM trichostatin A (“TSA,” Sigma) and/or 1 ng/mL interferon gamma (IFNγ) for 24 hours and 1 mM 5-azacitidine-dC (5-aza-dC, Sigma), for 3 days qd (i.e., once a day) or 6 days q2d (i.e., every other day).
(§2) Buffer RLT Plus (Qiagen) was used to lyse the cells for RNA and DNA extraction from the same lysate using the AllPrep DNA/RNA Mini Kit (Qiagen). RNA expression was analyzed by microarray on the GeneChip Human Genome U133 Plus 2.0 Array (Affymetrix) by Asuragen, Inc, and by qPCR using TaqMan Gene Expression Assays (Life Technologies). Data was analyzed using Genomics Suite (Partek), Spotfire (TIBCO), JMP (SAS), and IPA (Ingenuity). DNA was analyzed on the INFINIUM® HumanMethylation450 BeadChip (Illumina). DNA was bisulfite-modified using the Zymo DNA Gold Methylation kit (Zymo Research) and amplified with bisulfite specific sequencing primers targeting the CD274 promoter region. PCR products were TA-subcloned and sequenced using standard methods (ABI). ABI sequence files were analyzed using BIQ Analyzer software (C. Bock).
NSCLC cell lines from the Cancer Genome Project (CGP) were used to create a scatter plot directly comparing smoothened CpG1 and CpG5 methylation (M-value) on the X axis and PD-L1 expression (RNA-seq, Log 2-count) on the Y axis. […] PD-L1 baseline expression in these cell lines is highly affected by the level of promoter methylation. The CGP cell lines analyzed in FIG. 6A were then categorized into three methylation groups: (1) low (i.e., low to no methylation at both CpG1 and CpG5), (2) intermediate (i.e., CpG1 or CpG5 site methylated), or (3) high (CpG1 and CpG5 both methylated). These groups were plotted on the X axis, with basal PD-L1 expression by RNA-seq plotted on the Y and median expression shown for each group. […] Group (1) (i.e., low) had the highest median PD-L1 expression, with Group (2) (i.e., intermediate) and Group (3) (i.e., high) methylation groups showing lower median PD-L1 expression.
The cell lines in the CPG NSCLC cell line panel were then treated with 5-aza-dC in order to the effect global demethylation would have on PD-L1 expression in a dataset with a larger number of cell lines. […] Additionally, two cell lines in this panel are known to have been raised from two separate samples from one patient, H1993 (low) and H2073 (intermediate).

PD-L1 RNA expression = PD-L1 RNA expression by qRT-PCR in treated NSCLC cell lines (FIG. 3, 4A)
Description: as §1, §2
Cells from each of the cell lines were exposed to one of five conditions: (1) no treatment; (2) treatment with 1 mM 5-azacitidine-dC (5-aza-dC, a DNA demethylation agent); (3) treatment with 0.1 mM trichostatin A (TSA, a class I and class II mammalian histone […]); (4) treatment with 1 ng/mL interferon gamma (IFNg); or (5) treatment with a combination of 5-aza-dC, TSA, and IFNg. PD-L1 RNA expression was then measured by qRT-PCR.

PD-L1 protein expression = test: Surface PD-L1 protein expression by FACS after IFNg treatment (FIG. 4A)
Description: as §1
For FACS analysis, cells were detached then washed twice in FBS Staining Buffer (BD Biosciences). Cells were then stained with either PE-conjugated anti-human PD-L1 or isotype control (BD Biosciences) and then washed and analyzed on the FACSCanto II Analyzer (BD Biosciences).
PD-L1 protein expression loosely correlated with RNA expression in this subset of cell lines, both at baseline and following IFNg stimulation. […] In the A427 cell line, PD-L1 protein expression remained low. In the H292 and H358 cell lines, PD-L1 protein expression increased 3-4 fold, and in H322T, PD-L1 protein expression increased more than 48-fold as compared to baseline levels. […] As discussed above, baseline levels of PD-L1 protein in H322T were low.

STAT3 = test: Western blot of IFNg/JAK/STAT signaling pathway: STAT3
Description: (§3) Protein lysates were generated using Cell Extraction Buffer (Life Technologies), supplemented with SigmaFAST Protease Inhibitor Tablets (Sigma) and Phosphatase Inhibitor Cocktail 1 and 2 (Sigma). Lysates centrifuged at 20,000×g for 10 minutes at 4° C., and the supernatants were then removed for analysis by Western Blot (WB). Samples were treated with NuPage Novex LDS and SRA Buffers (Life Technologies) and loaded onto a Bis-Tris Gel (Life Technologies) alongside SeeBlue Plus2 molecular weight standard (Life Technologies). Gels were transferred to nitrocellulose membranes using the iBlot system (Life Technologies) and then blocked with Odyssey Blocking Buffer (LI-COR) for 1 hour at room temperature. Gels were stained with antibodies against human PD-L1 (in-house), β-actin (Sigma); p/t STAT1, p-STAT3-Y705, p-STAT3-5727, and t-STAT3 (all Cell Signaling) diluted in Odyssey Blocking Buffer+0.01% Tween-20. Primary antibodies were detected secondary antibodies from LI-COR in Odyssey Blocking Buffer+0.01% Tween-20+0.001% SDS and analyzed on the Odyssey CLx system (LI-COR).
Next, western blots were performed to determine whether the IFNg/JAK/STAT signaling pathway plays a role in the IFNg-mediated induction of PD-L1 transcript and protein levels in A427, H322T, H292, and H358. Briefly, cells from A427, H322T, H292, and H358 were either (a) untreated; (b) treated with IFNg for 30 minutes; or (c) treated with IFNg for 24 hours. The cells were then processed into protein lysates and run out on gels, blotted and probed with the following antibodies: (1) anti-phospho-STAT1; (2) anti-total-STAT1: (3) anti-phospho-STAT3-Y705; (4) anti-phospho-STAT3-S727; (5) anti-total-STAT3; and (6) β-actin (loading control). […] STAT3 was further activated by the mTOR and MAPK pathways at S727.
Next, the relationship between PD-L1 promoter methylation and the IFNg/JAK/STAT pathway was investigated in A427 and H358 using siRNA. […] In order to determine which STAT was most crucial for PD-L1 expression in the context of methylation, cells from each cell line were dosed with (1) no siRNA; (2) Scrambled control; (3) siSTAT1; (4) siSTAT3; (5) IFNg, or (6) siSTAT1, siSTAT3, and IFNg.

STAT1 = test: Western blot of IFNg/JAK/STAT signaling pathway: STAT1
Description: as §3
Next, western blots were performed to determine whether the IFNg/JAK/STAT signaling pathway plays a role in the IFNg-mediated induction of PD-L1 transcript and protein levels in A427, H322T, H292, and H358. […]

[2] = test system: STAT3 near CpG1 in the PD-L1 promoter; test: ChIP-Seq: binding of STAT3 near CpG1 in the PD-L1 promoter; conditions: H358, methylation at PD-L1 promoter LOW; IFNγ stimulation
Description: (§4) NSCLC cell lines were grown to the proper confluency, and treated cells were fixed with 1% formaldehyde for 15 min and quenched with 0.125 M glycine. Chromatin was isolated by the addition of lysis buffer and disruption with a Dounce homogenizer. Lysates were sonicated, and the DNA was sheared to an average length of 300-500 bp. Genomic DNA (Input) was prepared by treating aliquots of chromatin with RNase, proteinase K, and heat for de-crosslinking. Treatment was followed by ethanol precipitation. Pellets of genomic DNA were resuspended and the resulting DNA was quantified on a NanoDrop spectrophotometer. Extrapolation to the original chromatin volume allowed quantitation of the total chromatin yield.
(§5) An aliquot of chromatin (30 μg) was pre-cleared with protein A agarose beads (Invitrogen). […]
(§6) Illumina sequencing libraries were prepared from the ChIP and Input DNAs by the standard consecutive enzymatic steps of end-polishing, dA-addition, and adaptor ligation. After a final PCR amplification step, the resulting DNA libraries were quantified and sequenced on HiSeq 2500 or NexSeq 500. Sequences (50 nt reads, single end or 75 nt reads, single end) were aligned to the human genome (hg19) using the BWA algorithm. […] Peak locations were determined using the MACS algorithm (v1.4.2.) with a cutoff of pvalue=1×10^−7. […]

[3] = test system: STAT1 near CpG1 in the PD-L1 promoter; test: ChIP-Seq: binding of STAT1 near CpG1 in the PD-L1 promoter; conditions: H358, methylation at PD-L1 promoter LOW; IFNγ stimulation
Description: as §4, §5, §6

PD-L1 expression [4] = test: PD-L1 expression after IFNg and/or STAT1 and STAT3 siRNA knockdown in A427 and H358 (FIG. 4C); conditions: H358 (unmethylated)
Description: as §3
Next, the relationship between PD-L1 promoter methylation and the IFNg/JAK/STAT pathway was investigated in A427 and H358 using siRNA. […]

[5] = A427 following stimulation with IFNg (FIG. 4C)

Molecule: Nc1ncn([C@H]2C[C@H](O)[C@@H](CO)O2)c(=O)n1 [5-aza-dC, 5-azacitidine-dC]
PD-L1 expression (PD-L1 expression [1]; CGP NSCLC cell line panel treated with 5-aza-dC): significantly induced
PD-L1 expression (PD-L1 expression [1]; H1993 (low methylation) following 5-aza-dC treatment): no significant changes
PD-L1 expression (PD-L1 expression [1]; H2073 (intermediate methylation) following 5-aza-dC treatment): significant PD-L1 expression induction
induction of methylation-suppressed PD-L1 expression (PD-L1 expression [1]; only Group (3) (high methylation) cell lines, 5-aza-dC): significant induction
PD-L1 RNA expression (PD-L1 RNA expression; A427 (high methylation), 3 days of 5-aza-dC treatment): increased
PD-L1 RNA expression (PD-L1 RNA expression; H322T (medium methylation), 3 days of 5-aza-dC treatment): increased
PD-L1 RNA expression (PD-L1 RNA expression; H661 (high methylation at CpG1 and CpG5), 3 days of 5-aza-dC treatment): increased
PD-L1 RNA expression (PD-L1 RNA expression; LXFL529 (high methylation), 3 days of 5-aza-dC treatment): increased

Molecule: CC(/C=C/C(=O)NO)=C\[C@@H](C)C(=O)c1ccc(N(C)C)cc1 [TSA, trichostatin A]
PD-L1 RNA expression (PD-L1 RNA expression; H322T only, of H661, LXFL529, A427, H2073, H322T, H1993, 0.1 mM TSA): increase

Binding (chIP STAT3) [2]: bound and YES
Binding (chIP STAT1) [3]: bind and YES
Molecule: interferon gamma [IFNg, interferon gamma, used at 1 ng/mL to stimulate cells]
PD-L1 protein expression (PD-L1 protein expression; A427 following IFNg treatment): remained low
PD-L1 protein expression increase (PD-L1 protein expression; H292 following IFNg treatment, vs baseline): 3-4 fold
PD-L1 protein expression increase (PD-L1 protein expression; H322T following IFNg treatment, compared to baseline levels): more than 48 fold
PD-L1 protein expression increase (PD-L1 protein expression; H358 following IFNg treatment, vs baseline): 3-4 fold
surface PD-L1 protein levels (PD-L1 protein expression; all four cell lines (A427, H322T, H292, H358) following IFNg treatment): increased
induction of activated STAT3 (STAT3; [5]): strong induction
p-STAT3-Y705 (STAT3; H292, following 30 min IFNg treatment): constitutively activated
p-STAT3-5727 activation (STAT3; H358, before and after stimulation, early and late timepoints): did not show p-STAT3-5727 activation
p-STAT3-Y705 (STAT3; H358, by 24 hrs following IFNg stimulation): lost
Activation of the JAK/STAT signaling pathway (STAT3; all cell lines except H358, by 24 hrs IFNg): observed
induction of activated STAT1 (STAT1; [5]): strong induction
p-STAT1 activation (STAT1; all four cell lines (A427, H322T, H292, H358) following IFNg stimulation): robust
PD-L1 expression (PD-L1 expression [4]): further induced
PD-L1 RNA expression (PD-L1 RNA expression; A427 (high methylation) after IFNg stimulation): 0.012 2^−DCt
PD-L1 RNA induction (PD-L1 RNA expression; A427, H322T, H292 and H358 stimulated with IFNg): increases
PD-L1 RNA expression (PD-L1 RNA expression; H292 (low methylation) after IFNg stimulation): 0.102 2^−DCt
PD-L1 RNA expression (PD-L1 RNA expression; H322T (medium methylation) after IFNg stimulation, baseline 0.018): 1.356 2^−DCt
PD-L1 RNA expression (PD-L1 RNA expression; H358 (low methylation, high baseline) after IFNg stimulation): no significant changes
